Source: US10323019B2, “Pyrazolylaminobenzimidazole derivatives as JAK inhibitors” (Eli Lilly and Company, priority 2016, dated 2019)

Legend:
JAK3 = JAK3 (Homo sapiens (Human), UniProt P52333); test: JAK LanthaScreen Kinase Assay (TR-FRET), JAK3 in vitro enzyme assay; type: biochemical; settings: 20.0 μM ATP
Procedure: (§1) The JAK LanthaScreen™ Kinase Assay (Invitrogen) is used to determine the ability of test compounds to inhibit JAK1, JAK2, and JAK3 kinase activity. These are TR-FRET assay formats that use long-lifetime terbium labeled antibody as the donor species and GFP-STAT1 as the acceptor species. Use the TR-FRET ratio to monitor JAK kinase activity where an increase in phosphorylation of the GFP-STAT1 results in an increase in the TR-FRET ratio. Perform the kinase reaction using a 12.5 μl reaction volume in shallow black 384-well Proxiplate®. Add reagents to obtain final reaction conditions of […], 1.76 mM Triton X-100, ATP (20.0 μM for JAK1 and JAK3 or 5 μM for JAK2) enzyme assays, 10.0 mM MgCl2, 1 mM EGTA and 0.01% Brij-35, […] GFP-STAT1, 14 nM JAK1 enzyme for JAK1, 1.0 nM for JAK2 or 2.5 nM for JAK3 enzyme assays, and 4% DMSO and serial dilutions of test compound (diluted 1:3 from 20,000 to 1 nM). Following ATP/GFP-STAT1 addition, centrifuge the assay plates for 1 minute at 1000 revolutions per minute (RPM). Allow the plates to incubate at RT for 60 minutes and then add 12.5 μl of a stopping buffer containing 20 mM EDTA, 2 nM Terbium-anti-phosphorylated Signal Transducers and Activators of Transcription [phosphorylation Tyrosine 701 amino acid] […] Use ACTIVITYBASE® 4.0 to fit the percent inhibition and ten-point compound concentration data to a four-parameter logistic equation.

JAK2 [1] = target: T1, JAK2 (Homo sapiens (Human), UniProt O60674); test: Human whole blood assay: pSTAT5 (JAK2) in monocytes, GM-CSF stimulated; type: cell-based; settings: pSTAT5 in CD4Low CD33Hi monocytes
From the text: (§2) Human Whole Blood Assays: Determination of pSTAT3 (JAK1) and pSTAT5 (JAK2) in Lymphocytes and Monocytes
(§3) Human whole blood (HWB) assays were developed and validated to determine the JAK1 and JAK2 selectivity of test compounds.
(§4) Dilute the test compounds, 10 points, (1:3) in DMSO 100% and a step down in PBS+0.1% BSA. Use Tofacitinib as a reference compound in each plate, as well as a maximum signal (stimulated wells) and a minimum signal (no stimulated wells) in order to normalize data. Obtain a pool of HWB from 4 different healthy donors. Plate the blood in a 96 well plate using a Tecan Evo 96w and incubate with test compounds for 1 h at RT. After this time of incubation, stimulate HWB with both IL6 (206-IL, R&D System) and GM-CSF (PHC2015, Life Technologies) for 15 more minutes. Add a viability dye (65-0865, eBiosicience) (1:1000) using a Tecan Evo 96w (5×mix).
(§5) The final concentrations in the assay are the following: 100 (μM for compounds, 50 μM for Tofacitinib, 0.1 μg/mL IL6, 0.038 μg/mL GM-CSF and 1% DMSO. Lyse and fix HWB using a Lyse/fix buffer (558049, Becton Dickinson) by adding 900 μL of lysis buffer using Tecan Evo 96w (mix 10× high speed). Incubate HWB in bath at 37° C. for 10 minutes. Centrifuge HWB at 500 G, 8 min and discard supernatant. Add cold MeOH using a Tecan Exo 96w in order to permeabilize cells. Incubate blood cells on ice during 30 min. After this, wash cells 2× using Staining buffer (554656, Becton Dickinson), spin at 3000 rpm, 2 min. discard supernatant, and add the following antibodies: Anti-Human CD4 PE, 1:100 (12-0048, eBioscience), Anti-Human CD33 eFluor® 450, 1:50 (48-0337, eBioscience), Phospho-STAT5 (Tyr694) (C71E5) Rabbit mAb, 1:100 (Alexa Fluor® 488 Conjugate) (3939, Cell Signaling) and Phospho-STAT3 (Tyr705) (D3A7) XP™ Rabbit mAb 1:200, (Alexa Fluor® 647 Conjugate) (4324, Cell Signaling). Incubate the antibodies for 1 h in dark at RT, then wash cells 2× and read on Cytometer Macsquant (Miltenyi Biotec). Gate the data on CD4+ (lymphocytes) and CD4Low CD33Hi (monocytes), to measure the fluorescence intensity from cells expressing pSTAT3 and pSTAT5, respectively. Analyze the data using FlowJo v 10 and then normalize the median of fluorescence versus maximum and minimum signal to determine the IC50s. Use Graph Pad Prism 5™ to represent the dose response curves.

JAK1 [2] = target: T2, JAK1 (Homo sapiens (Human), UniProt P23458); test: Human whole blood assay: pSTAT3 (JAK1) in lymphocytes, IL6 stimulated; type: cell-based; settings: IL6, pSTAT3 in CD4+ lymphocytes
From the text: as §2, §3, §4, §5

JAK2 [3] = target: T1, JAK2; test: JAK LanthaScreen Kinase Assay (TR-FRET), JAK2 in vitro enzyme assay; type: biochemical; settings: 5 μM ATP
Procedure: as §1

JAK1 [4] = target: T2, JAK1; test: JAK LanthaScreen Kinase Assay (TR-FRET), JAK1 in vitro enzyme assay; type: biochemical; settings: 20.0 μM ATP
Procedure: as §1

T1 sequence (O60674 whole entry): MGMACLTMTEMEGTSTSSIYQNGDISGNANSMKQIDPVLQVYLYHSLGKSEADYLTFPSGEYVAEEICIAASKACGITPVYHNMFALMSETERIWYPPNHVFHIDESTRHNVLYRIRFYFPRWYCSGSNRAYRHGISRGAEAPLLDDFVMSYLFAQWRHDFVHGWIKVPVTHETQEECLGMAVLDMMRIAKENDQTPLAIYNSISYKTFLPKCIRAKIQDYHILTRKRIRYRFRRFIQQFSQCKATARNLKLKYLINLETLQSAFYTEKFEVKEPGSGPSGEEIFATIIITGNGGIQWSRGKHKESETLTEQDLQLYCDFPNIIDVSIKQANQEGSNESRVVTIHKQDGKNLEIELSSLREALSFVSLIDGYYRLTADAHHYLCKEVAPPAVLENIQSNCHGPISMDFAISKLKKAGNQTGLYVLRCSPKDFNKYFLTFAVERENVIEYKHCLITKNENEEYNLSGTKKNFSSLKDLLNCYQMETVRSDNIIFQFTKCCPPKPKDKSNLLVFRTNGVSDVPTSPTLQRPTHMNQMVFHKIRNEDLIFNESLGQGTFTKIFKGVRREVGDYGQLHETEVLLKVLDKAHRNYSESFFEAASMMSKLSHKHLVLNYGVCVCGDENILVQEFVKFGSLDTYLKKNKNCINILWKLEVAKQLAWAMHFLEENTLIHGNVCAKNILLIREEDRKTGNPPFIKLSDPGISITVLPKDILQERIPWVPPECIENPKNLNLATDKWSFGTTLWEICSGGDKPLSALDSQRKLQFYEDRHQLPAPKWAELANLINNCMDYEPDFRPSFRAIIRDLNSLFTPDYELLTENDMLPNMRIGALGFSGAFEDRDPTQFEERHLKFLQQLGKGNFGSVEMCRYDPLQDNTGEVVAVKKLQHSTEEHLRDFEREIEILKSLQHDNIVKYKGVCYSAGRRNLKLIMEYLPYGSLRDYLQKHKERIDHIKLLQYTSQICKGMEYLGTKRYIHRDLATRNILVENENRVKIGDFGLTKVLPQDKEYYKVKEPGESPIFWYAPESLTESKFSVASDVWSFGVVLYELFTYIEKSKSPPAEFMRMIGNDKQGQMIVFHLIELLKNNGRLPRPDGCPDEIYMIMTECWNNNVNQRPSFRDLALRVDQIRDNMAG
T2 sequence (P23458 whole entry): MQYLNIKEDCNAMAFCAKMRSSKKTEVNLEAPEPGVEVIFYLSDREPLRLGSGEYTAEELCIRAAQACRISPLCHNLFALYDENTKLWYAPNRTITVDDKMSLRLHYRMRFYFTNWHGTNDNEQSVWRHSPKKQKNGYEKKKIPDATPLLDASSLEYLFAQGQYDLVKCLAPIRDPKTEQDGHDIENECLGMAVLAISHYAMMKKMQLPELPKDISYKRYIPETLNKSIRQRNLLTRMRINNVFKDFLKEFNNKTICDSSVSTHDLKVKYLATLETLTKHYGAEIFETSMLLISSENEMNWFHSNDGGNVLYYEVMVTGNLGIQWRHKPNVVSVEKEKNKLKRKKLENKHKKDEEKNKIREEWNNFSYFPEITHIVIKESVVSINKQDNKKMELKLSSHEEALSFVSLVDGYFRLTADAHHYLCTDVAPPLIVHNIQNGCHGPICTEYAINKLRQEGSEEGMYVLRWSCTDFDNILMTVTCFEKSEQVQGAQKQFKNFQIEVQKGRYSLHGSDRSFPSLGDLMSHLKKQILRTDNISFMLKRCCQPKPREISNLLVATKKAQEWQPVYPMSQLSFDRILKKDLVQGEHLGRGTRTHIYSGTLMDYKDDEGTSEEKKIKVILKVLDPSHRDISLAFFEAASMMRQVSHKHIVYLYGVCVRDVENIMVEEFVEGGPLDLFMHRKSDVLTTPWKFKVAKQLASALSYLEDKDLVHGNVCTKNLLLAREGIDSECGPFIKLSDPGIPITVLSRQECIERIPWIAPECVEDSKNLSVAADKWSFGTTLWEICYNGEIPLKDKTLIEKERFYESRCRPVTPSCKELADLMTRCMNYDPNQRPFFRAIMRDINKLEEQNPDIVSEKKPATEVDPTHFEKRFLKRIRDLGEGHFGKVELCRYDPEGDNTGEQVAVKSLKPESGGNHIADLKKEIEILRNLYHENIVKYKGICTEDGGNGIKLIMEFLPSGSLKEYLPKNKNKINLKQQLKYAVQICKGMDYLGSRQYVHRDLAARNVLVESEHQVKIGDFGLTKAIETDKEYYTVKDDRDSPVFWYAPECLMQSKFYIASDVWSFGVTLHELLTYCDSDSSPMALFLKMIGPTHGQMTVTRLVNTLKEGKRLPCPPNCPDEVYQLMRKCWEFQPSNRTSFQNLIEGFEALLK
Chain of JAK3 (P52333 whole entry): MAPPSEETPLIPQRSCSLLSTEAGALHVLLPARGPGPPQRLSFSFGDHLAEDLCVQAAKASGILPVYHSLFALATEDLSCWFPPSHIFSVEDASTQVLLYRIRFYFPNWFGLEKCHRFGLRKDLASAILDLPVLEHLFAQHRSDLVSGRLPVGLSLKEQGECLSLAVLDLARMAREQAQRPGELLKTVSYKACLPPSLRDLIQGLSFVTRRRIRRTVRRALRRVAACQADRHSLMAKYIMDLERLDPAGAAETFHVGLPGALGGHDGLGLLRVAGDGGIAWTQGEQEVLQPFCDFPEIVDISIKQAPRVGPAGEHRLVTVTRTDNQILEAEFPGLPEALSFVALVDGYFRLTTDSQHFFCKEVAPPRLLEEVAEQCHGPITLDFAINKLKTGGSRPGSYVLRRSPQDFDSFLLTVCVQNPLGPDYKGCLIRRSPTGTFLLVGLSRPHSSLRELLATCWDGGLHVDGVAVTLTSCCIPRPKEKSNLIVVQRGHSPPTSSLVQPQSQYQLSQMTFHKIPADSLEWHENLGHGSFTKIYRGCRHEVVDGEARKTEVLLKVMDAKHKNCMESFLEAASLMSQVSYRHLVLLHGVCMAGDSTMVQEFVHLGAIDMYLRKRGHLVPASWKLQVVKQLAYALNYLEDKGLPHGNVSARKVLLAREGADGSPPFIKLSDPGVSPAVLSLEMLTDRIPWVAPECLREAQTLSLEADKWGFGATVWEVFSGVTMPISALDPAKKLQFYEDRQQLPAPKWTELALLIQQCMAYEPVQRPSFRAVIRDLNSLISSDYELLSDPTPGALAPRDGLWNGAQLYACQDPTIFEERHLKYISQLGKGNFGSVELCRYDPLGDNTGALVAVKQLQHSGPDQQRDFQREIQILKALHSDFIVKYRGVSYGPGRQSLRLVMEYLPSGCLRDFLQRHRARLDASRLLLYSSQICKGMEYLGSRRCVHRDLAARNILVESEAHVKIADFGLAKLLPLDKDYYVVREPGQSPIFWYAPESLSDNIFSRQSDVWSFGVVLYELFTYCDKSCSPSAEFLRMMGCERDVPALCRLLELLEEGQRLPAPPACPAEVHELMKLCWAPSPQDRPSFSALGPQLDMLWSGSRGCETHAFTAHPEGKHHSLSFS

## COc1cc(Nc2cc(O[C@H]3CC[C@@H](NC[C@@H](O)C(F)(F)F)CC3)cc3c2ncn3C)nn1C [Example 6, (2R)-1,1,1-Trifluoro-3-{[cis-4-({4-[(5-methoxy-1-methyl-1H-pyrazol-3-yl)amino]-1-methyl-1H-benzimidazol-6-yl}oxy)cyclohexyl]amino}propan-2-ol]
JAK3
  IC50: 2540 ± 510 nM
JAK2 [1]
  IC50: 20300 ± 6300 nM
JAK1 [2]
  IC50: 3650 ± 790 nM
JAK2 [3]
  IC50: 768 ± 220 nM
JAK1 [4]
  IC50: 5.25 ± 1.11 nM
